Patent US20260078130A1, “NAMPT MODULATORS, PREPARATIONS, AND USES THEREOF” (SIRONAX LTD., priority 2022, published 2026)
Read-outs that look alike come from different tables or passages of the source.

Experiments:
[1] = molecular target: T1, human enzyme NAMPT (full length) (Homo sapiens, UniProt P43490); experiment: NMN fluorescence biochemical assay (stimulation of NMN synthesis by NAMPT); details: for EC50: concentration giving half-maximal activation, read-out: Enzymatic EC50; for Enzymatic Emax: fold change of maximal activation compared to DMSO
T1 construct: human enzyme NAMPT (full length)
T1 sequence (P43490 whole entry): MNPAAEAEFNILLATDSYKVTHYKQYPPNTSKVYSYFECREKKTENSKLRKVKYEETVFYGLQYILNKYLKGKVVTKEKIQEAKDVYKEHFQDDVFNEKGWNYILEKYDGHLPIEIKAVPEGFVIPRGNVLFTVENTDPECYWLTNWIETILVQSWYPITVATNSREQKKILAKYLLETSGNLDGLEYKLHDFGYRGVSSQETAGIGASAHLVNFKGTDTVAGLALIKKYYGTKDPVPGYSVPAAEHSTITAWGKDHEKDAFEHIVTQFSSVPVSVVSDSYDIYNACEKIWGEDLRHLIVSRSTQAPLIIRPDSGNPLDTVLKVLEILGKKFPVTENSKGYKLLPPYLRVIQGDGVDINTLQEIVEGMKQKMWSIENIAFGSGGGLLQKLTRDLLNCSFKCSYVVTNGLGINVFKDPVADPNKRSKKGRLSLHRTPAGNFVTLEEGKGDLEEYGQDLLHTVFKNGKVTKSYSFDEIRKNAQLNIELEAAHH
Method in brief: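 Full-length human NAMPT (100 nM) was preincubated 15 min at 37 °C with compound in 50 mM Tris-HCl pH 7.5, 10 mM MgCl2, 2 mM DTT, then reacted 1 h at 37 °C with 50 μM NAM, 100 μM PRPP, 4 mM ATP (stated solution concentrations). NMN was derivatised with acetophenone/KOH then formic acid and read at Ex/Em 382/445 nm; EC50 and Emax (fold over DMSO) reported.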

[2] = test system: endogenous NAMPT in U2OS cells; experiment: Cellular NAD+ modulation assay (NAD/NADH-Glo, U2OS cells); assay type: cell-based; details: Homo sapiens; for maximal fold induction: read-out: Cellular Emax
Method in brief: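 NAD/NADH-Glo luminescence quantified NAD+ after acid treatment (60 °C, 15 min) and neutralization of DTAB lysates. Beforehand, U2OS cells seeded 16 h earlier received compound concentration series for 24 h at 37 °C. Values given as half-maximal activation concentration (EC50) and maximal fold change versus DMSO (Emax).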

[3] = NMN fluorescence assay, purified human NAMPT 100 nM
[4] = 24 hours incubation, cellular NAD+
[5] = NMN synthesis by purified human NAMPT (100 nM)
[6] = 24 hours incubation with compound

Row | Structure (SMILES) | EC50 [1, 3] [nM] | Enzymatic Emax [1] | EC50 [2, 4] [nM] | maximal fold induction [2, 4] | EC50 [1, 5] [nM] | EC50 [2, 6] [nM] | maximal fold induction [2, 6]
1 | O=C1NCC2(CC(CN3C(=O)c4ccccc4C3Cc3c(Cl)nc4sccn34)C2)O1 (centres unmarked) [Compound 469, 2-((1-((6-chloroimidazo[2,1-b]thiazol-5-yl)methyl)-3-oxoisoindolin-2-yl)methyl)-5-oxa-7-azaspiro[3.4]octan-6-one] | 500 to 5000 | B (3≥B>2) | < 500 | > 1.5 |  |  | 
2 | Cn1nc(F)c(Cl)c1CC1c2ccccc2C(=O)N1CC1CC2(CNC(=O)O2)C1 (centres unmarked) [Compound 547, 2-((1-((4-chloro-3-fluoro-1-methyl-1H-pyrazol-5-yl)methyl)-3-oxoisoindolin-2-yl)methyl)-5-oxa-7-azaspiro[3.4]octan-6-one] | 500 to 5000 | A (A>3) | < 500 | > 1.5 |  |  | 
3 | Cc1ccn(C)c(=O)c1CC1c2ccccc2C(=O)N1CC1CC2(CNC(=O)O2)C1 (centres unmarked) [Compound 481, 2-((1-((1,4-dimethyl-2-oxo-1,2-dihydropyridin-3-yl)methyl)-3-oxoisoindolin-2-yl)methyl)-5-oxa-7-azaspiro[3.4]octan-6-one] | 500 to 5000 | B (3≥B>2) | 500 to 5000 | > 1.5 |  |  | 
4 | COc1ccc(CN2C(=O)c3ccc(C4CC4)cc3C2Cc2c(C)ncnc2C#N)cc1 (centres unmarked) [Compound 638, 5-((6-cyclopropyl-2-(4-methoxybenzyl)-3-oxoisoindolin-1-yl)methyl)-6-methylpyrimidine-4-carbonitrile] | 500 to 5000 | A (A>3) | < 500 | 1.2 to 1.5 |  |  | 
5 | CC1NC(=O)OC12CC(CN1C(=O)c3ccccc3C1Cc1ncccc1Br)C2 (centres unmarked) [Compound 395, 2-((1-((3-bromopyridin-2-yl)methyl)-3-oxoisoindolin-2-yl)methyl)-8-methyl-5-oxa-7-azaspiro[3.4]octan-6-one] | 500 to 5000 | C (2≥C) | 500 to 5000 | > 1.5 |  |  | 
6 | Cc1ccc(C#N)c(CC2c3ccccc3C(=O)N2Cc2ccc3[nH]c(=O)oc3c2)c1 (centres unmarked) [Compound 164, 4-methyl-2-((3-oxo-2-((2-oxo-2,3-dihydrobenzo[d]oxazol-6-yl)methyl)isoindolin-1-yl)methyl)benzonitrile] |  | B (3≥B>2) |  |  | < 500 | < 500 | > 1.5
7 | Cn1ncc(Cl)c1CC1c2ccccc2C(C)(C)N1C/C=C/c1c[nH]nn1 (centres unmarked) [Compound 606, (E)-2-(3-(1H-1,2,3-triazol-4-yl)allyl)-3-((4-chloro-1-methyl-1H-pyrazol-5-yl)methyl)-1,1-dimethylisoindoline] | 500 to 5000 | A (A>3) | < 500 | > 1.5 |  |  | 
8 | Cn1ncc(Cl)c1CC1c2ccccc2C(=O)N1Cc1ccc(Cl)cc1 (centres unmarked) [Compound 573, 3-((4-chloro-1-methyl-1H-pyrazol-5-yl)methyl)-2-(4-chlorobenzyl)isoindolin-1-one] | ≥ 5000 | C (2≥C) | 5000 to 50000 | ≤ 1.2 |  |  | 
9 | Cc1nc(Cl)c(CC2c3ccccc3C(=O)N2CC2CC3(CNC(=O)O3)C2)n1C (centres unmarked) [Compound 526, 2-((1-((4-chloro-1,2-dimethyl-1H-imidazol-5-yl)methyl)-3-oxoisoindolin-2-yl)methyl)-5-oxa-7-azaspiro[3.4]octan-6-one] | 500 to 5000 | B (3≥B>2) | 500 to 5000 | > 1.5 |  |  | 
10 | Cc1c(CC2c3ccccc3C(=O)N2Cc2ccc3[nH]nnc3c2)c(C#N)nn1C (centres unmarked) [Compound 393, 4-((2-((1H-benzo[d][1,2,3]triazol-5-yl)methyl)-3-oxoisoindolin-1-yl)methyl)-1,5-dimethyl-1H-pyrazole-3-carbonitrile] | < 500 | B (3≥B>2) | < 500 | > 1.5 |  |  | 
11 | COc1ccc2c(c1)CN(Cc1ccc(O)cc1)C2=O [Compound 35, 2-(4-hydroxybenzyl)-5-methoxyisoindolin-1-one] |  | A (A>3) |  |  | 500 to 5000 | 500 to 5000 | 1.2 to 1.5
